Tested on: Wnt activity
Assay: Wnt activity reporter assay (SP5 promoter firefly luciferase in SW480 cells)
Assay type: cell-based
Details: Homo sapiens; SW480 cells bearing SP5 promoter luciferase reporter; 24 h after compound addition; read-out: Wnt inhibition
Description: The above synthesized compounds were screened using the assay procedure for Wnt activity described below.
Reporter cell lines can be generated by stably transducing cells of cancer cell lines (e.g., colon cancer) with a lentiviral construct that include a wnt-responsive promoter driving expression of the firefly luciferase gene.
Lentiviral constructs can be made in which the SP5 promoter, a promoter having eight TCF/LEF binding sites derived from the SP5 promoter, is linked upstream of the firefly luciferase gene. The lentiviral constructs can also include a hygromycin resistance gene as a selectable marker. The SP5 promoter construct can be used to transduce SW480 cells, a colon cancer cell line having a mutated APC gene that generates a truncated APC protein, leading to de-regulated accumulation of β-catenin.
Cultured SW480 cells bearing a reporter construct can be distributed at approximately 10,000 cells per well into 384 well multiwell plates. Compounds from a small molecule compound library can then be added to the wells in half-log dilutions using a three micromolar top concentration. A series of control wells for each cell type receive only buffer and compound solvent. Twenty-four hours after the addition of compound, reporter activity for luciferases can be assayed, for example, by addition of the BrightGlo luminescence reagent (Promega) and the Victor3 plate reader (Perkin Elmer). Readings can be normalized to DMSO only treated cells, and normalized activities can then be used in the IC50 calculations.

Row | IC50 | Compound
1 | 67 to 98 nM | CN1CCN(c2cncc3[nH]c(-c4n[nH]c5ccc(-c6cncc(N7CCOCC7)c6)cc45)nc23)CC1 [Compound 5, 4-(5-(3-(7-(4-methylpiperazin-1-yl)-3H-imidazo[4,5-c]pyridin-2-yl)-1H-indazol-5-yl)pyridin-3-yl)morpholine]
2 | 23 nM | O=C(Cc1ccccc1)Nc1cncc(-c2ccc3[nH]nc(-c4nc5c(-c6cccc(F)c6)cncc5[nH]4)c3c2)c1 [Compound 86, N-(5-(3-(7-(3-Fluorophenyl)-3H-imidazo[4,5-c]pyridin-2-yl)-1H-indazol-5-yl)pyridin-3-yl)-2-phenylacetamide]
3 | 20 nM | FC1(F)CCN(Cc2cncc(-c3ccc4[nH]nc(-c5nc6c(N7CCCCC7)cncc6[nH]5)c4c3)c2)C1 [Compound 342, 2-(5-(5-((3,3-Difluoropyrrolidin-1-yl)methyl)pyridin-3-yl)-1H-indazol-3-yl)-7-(piperidin-1-yl)-3H-imidazo[4,5-c]pyridine]
4 | 214 to 463 nM | CN1CCN(c2cncc(-c3ccc4[nH]nc(-c5nc6ccncc6[nH]5)c4c3)c2)CC1 [Compound 7, 2-(5-(5-(4-methylpiperazin-1-yl)pyridin-3-yl)-1H-indazol-3-yl)-3H-imidazo[4,5-c]pyridine]
5 | 1.4 to 1.8 nM | CCC(=O)Nc1cncc(-c2ccc3[nH]nc(-c4nc5c(-c6cncc(F)c6)cncc5[nH]4)c3c2)c1 [Compound 20, N-(5-(3-(7-(5-fluoropyridin-3-yl)-3H-imidazo[4,5-c]pyridin-2-yl)-1H-indazol-5-yl)pyridin-3-yl)propionamide]
6 | 4 nM | CCCCC(=O)Nc1cncc(-c2ccc3[nH]nc(-c4nc5c(-c6ccoc6)cncc5[nH]4)c3c2)c1 [Compound 329, N-(5-(3-(7-(Furan-3-yl)-3H-imidazo[4,5-c]pyridin-2-yl)-1H-indazol-5-yl)pyridin-3-yl)pentanamide]
7 | 52 nM | Fc1ccc(-c2cncc3[nH]c(-c4n[nH]c5ccc(-c6cncc(CN7CCCC7)c6)cc45)nc23)cc1 [Compound 107, 7-(4-Fluorophenyl)-2-(5-(5-(pyrrolidin-1-ylmethyl)pyridin-3-yl)-1H-indazol-3-yl)-3H-imidazo[4,5-c]pyridine]
8 | 6 to 8 nM | CC(C)CC(=O)Nc1cncc(-c2ccc3[nH]nc(-c4nc5c(-c6ccc(F)cc6)cncc5[nH]4)c3c2)c1 [Compound 12, N-(5-(3-(7-(4-fluorophenyl)-3H-imidazo[4,5-c]pyridin-2-yl)-1H-indazol-5-yl)pyridin-3-yl)-3-methylbutanamide]
9 | 739 nM | O=C(Nc1cncc(-c2ccc3[nH]nc(-c4nc5c(-c6ccoc6)cncc5[nH]4)c3c2)c1)C1CC1 [Compound 330, N-(5-(3-(7-(Furan-3-yl)-3H-imidazo[4,5-c]pyridin-2-yl)-1H-indazol-5-yl)pyridin-3-yl)cyclopropanecarboxamide]
10 | > 10000 nM | CN(C)Cc1cncc(-c2ccc3[nH]nc(-c4nc5c(-c6cccc(F)c6)cncc5[nH]4)c3c2)c1 [Compound 89, 1-(5-(3-(7-(3-Fluorophenyl)-3H-imidazo[4,5-c]pyridin-2-yl)-1H-indazol-5-yl)pyridin-3-yl)-N,N-dimethylmethanamine]
11 | > 5000 nM | Cc1ccncc1-c1ccc2[nH]nc(-c3nc4c(-c5ccc(F)cc5)cncc4[nH]3)c2c1 [Compound 99, 7-(4-Fluorophenyl)-2-(5-(4-methylpyridin-3-yl)-1H-indazol-3-yl)-3H-imidazo[4,5-c]pyridine]
12 | 400 to 630 nM | CC(C)C(=O)Nc1cncc(-c2ccc3[nH]nc(-c4nc5ccncc5[nH]4)c3c2)c1 [Compound 9, N-(5-(3-(3H-imidazo[4,5-c]pyridin-2-yl)-1H-indazol-5-yl)pyridin-3-yl)isobutyramide]
13 | 191 nM | Cc1ccncc1-c1ccc2[nH]nc(-c3nc4c(-c5ccsc5)cncc4[nH]3)c2c1 [Compound 293, 2-(5-(4-Methylpyridin-3-yl)-1H-indazol-3-yl)-7-(thiophen-3-yl)-3H-imidazo[4,5-c]pyridine]
14 | 845 nM | c1cc(-c2cncc3[nH]c(-c4n[nH]c5ccc(-c6cncc(CNCC7CCCC7)c6)cc45)nc23)ccn1 [Compound 173, 1-Cyclopentyl-N-((5-(3-(7-(pyridin-4-yl)-3H-imidazo[4,5-c]pyridin-2-yl)-1H-indazol-5-yl)pyridin-3-yl)methyl)methanamine]
15 | 6 nM | O=C(Nc1cncc(-c2ccc3[nH]nc(-c4nc5c(-c6ccc(F)cc6)cncc5[nH]4)c3c2)c1)C1CCC1 [Compound 111, N-(5-(3-(7-(4-Fluorophenyl)-3H-imidazo[4,5-c]pyridin-2-yl)-1H-indazol-5-yl)pyridin-3-yl)cyclobutanecarboxamide]
16 | 650 nM | CN1CCN(c2cncc3[nH]c(-c4n[nH]c5ccc(-c6cncc(NC(=O)Cc7ccccc7)c6)cc45)nc23)CC1 [Compound 252, N-(5-(3-(7-(4-Methylpiperazin-1-yl)-3H-imidazo[4,5-c]pyridin-2-yl)-1H-indazol-5-yl)pyridin-3-yl)-2-phenylacetamide]
17 | 21 nM | CC(C)(C)CC(=O)Nc1cncc(-c2ccc3[nH]nc(-c4nc5ccncc5[nH]4)c3c2)c1 [Compound 280, N-(5-(3-(3H-Imidazo[4,5-c]pyridin-2-yl)-1H-indazol-5-yl)pyridin-3-yl)-3,3-dimethylbutanamide]
18 | 2 nM | c1ccc(-c2cncc3[nH]c(-c4n[nH]c5ccc(-c6cccnc6)cc45)nc23)nc1 [Compound 177, 7-(Pyridin-2-yl)-2-(5-(pyridin-3-yl)-1H-indazol-3-yl)-3H-imidazo[4,5-c]pyridine]
19 | > 10000 nM | Nc1cncc(-c2ccc3[nH]nc(-c4nc5ccncc5[nH]4)c3c2)c1 [Compound 268, 5-(3-(3H-Imidazo[4,5-c]pyridin-2-yl)-1H-indazol-5-yl)pyridin-3-amine]
20 | 8 nM | O=C(Nc1cncc(-c2ccc3[nH]nc(-c4nc5ccncc5[nH]4)c3c2)c1)C1CC1 [Compound 283, N-(5-(3-(3H-Imidazo[4,5-c]pyridin-2-yl)-1H-indazol-5-yl)pyridin-3-yl)cyclopropanecarboxamide]
21 | 2 nM | Nc1cncc(-c2ccc3[nH]nc(-c4nc5c(-c6ccsc6)cncc5[nH]4)c3c2)c1 [Compound 291, 5-(3-(7-(Thiophen-3-yl)-3H-imidazo[4,5-c]pyridin-2-yl)-1H-indazol-5-yl)pyridin-3-amine]
22 | 1 nM | CC(C)Nc1cncc(-c2ccc3[nH]nc(-c4nc5c(-c6ccccc6F)cncc5[nH]4)c3c2)c1 [Compound 124, 5-(3-(7-(2-Fluorophenyl)-3H-imidazo[4,5-c]pyridin-2-yl)-1H-indazol-5-yl)-N-isopropylpyridin-3-amine]
23 | 10 to 25 nM | Fc1cccc(-c2cncc3[nH]c(-c4n[nH]c5ccc(-c6cccnc6)cc45)nc23)c1 [Compound 15, 7-(3-fluorophenyl)-2-(5-(pyridin-3-yl)-1H-indazol-3-yl)-3H-imidazo[4,5-c]pyridine]
24 | 3 nM | CN(C)c1cncc(-c2ccc3[nH]nc(-c4nc5c(-c6ccsc6)cncc5[nH]4)c3c2)c1 [Compound 295, N,N-Dimethyl-5-(3-(7-(thiophen-3-yl)-3H-imidazo[4,5-c]pyridin-2-yl)-1H-indazol-5-yl)pyridin-3-amine]
25 | 0.1 nM | CC(C)CC(=O)Nc1cncc(-c2ccc3[nH]nc(-c4nc5c(-c6cccs6)cncc5[nH]4)c3c2)c1 [Compound 397, 3-Methyl-N-(5-(3-(7-(thiophen-2-yl)-3H-imidazo[4,5-c]pyridin-2-yl)-1H-indazol-5-yl)pyridin-3-yl)butanamide]
